Where only a bound is given, the exact number is not on record here.

In the assay the test system is Wnt/β-catenin signaling pathway (Wnt-responsive SP5 promoter luciferase reporter in SW480 cells). In words: Wnt reporter (SP5 promoter-firefly luciferase) activation assay in SW480 cells. It is filed as cell-based. Particulars: Homo sapiens; SW480 colon cancer cells with SP5 promoter luciferase reporter; 24 h after compound addition; normalized to DMSO; concentration at half maximal activation. How it is done: Compounds that enhance the Wnt activity, or Activators, were assayed as follows. Reporter cell lines were generated by stably transducing cells of colon cancer cell lines (with a lentiviral construct that included a Wnt-responsive promoter driving expression of the firefly luciferase gene).
Lentiviral constructs were made in which the SP5 promoter, a promoter having eight TCF/LEF binding sites derived from the SP5 promoter, was linked upstream of the firefly luciferase gene. The lentiviral constructs also included a hygromycin resistance gene as a selectable marker. The SP5 promoter construct was used to transduce SW480 cells, a colon cancer cell line having a mutated APC gene that generates a truncated APC protein, leading to de-regulated accumulation of β-catenin.
Cultured SW480 cells bearing a reporter construct were distributed at approximately 10,000 cells per well into 384- or 96-well multiwell plates. Compounds from a small molecule compound library were then added to the wells in half-log dilutions using a maximum concentration of three or ten micromolar. A series of control wells for each cell type received only buffer and compound solvent DMSO. Twenty-four hours after the addition of compound, reporter activity for luciferase was assayed, for example, by addition of the BrightGlo luminescence reagent (Promega) and the Victor3 plate reader (Perkin Elmer). Readings were normalized to DMSO only treated cells, and any activities above DMSO were considered activation. Compounds were considered activators if reporter activities were 2× fold or greater than DMSO. EC50 is the concentration at half maximal activation.
What is called EC50 is the concentration needed to bring the measured effect to its halfway point. The low end stands for a more potent agent, the high end for a less potent agent. `O=C(CCC(=O)c1cccs1)c1ccc2c(c1)CCCO2` [Compound 364, 1-(Chroman-6-yl)-4-(thiophen-2-yl)butane-1,4-dione] had an EC50 of 13 nM.

`Cc1ccccc1C(=O)CCC(=O)c1cccs1` [Compound 560, 1-(Thiophen-2-yl)-4-(o-tolyl)butane-1,4-dione] yielded an EC50 of 55 nM.

Compound `O=C(CCC(=O)c1ccccc1F)c1ccc2c(c1)SCCO2` [Compound 19, 1-(2,3-Dihydrobenzo[b][1,4]oxathiin-6-yl)-4-(2-fluorophenyl)butane-1,4-dione] returned an EC50 of 3 nM. For `Cc1ccc(C(=O)CCC(=O)c2ccc3c(c2)OCCO3)cc1` [Compound 344, 1-(2,3-Dihydrobenzo[b][1,4]dioxin-6-yl)-4-(p-tolyl)butane-1,4-dione] the value was 307 nM; for `O=C(CCC(=O)c1ccccc1F)c1ccc2[nH]ncc2c1` [Compound 495, 1-(2-Fluorophenyl)-4-(1H-indazol-5-yl)butane-1,4-dione], 8 nM. `O=C(CCC(=O)c1ncccn1)c1ccccc1` [Compound 718, 1-Phenyl-4-(pyrimidin-2-yl)butane-1,4-dione]: the EC50 was determined as 681 nM. Next, `COc1ccccc1C(=O)CCC(=O)c1cccc2c1OCCO2` [Compound 242, 1-(2,3-Dihydrobenzo[b][1,4]dioxin-5-yl)-4-(2-methoxyphenyl)butane-1,4-dione]: 789 nM; `COc1ccc(C(=O)CCC(=O)c2ccncc2)cc1OC` [Compound 209, 1-(3,4-Dimethoxyphenyl)-4-(pyridin-4-yl)butane-1,4-dione]: greater than 10000 nM; `O=C(CCC(=O)c1ccc2c(c1)OCCO2)c1cccc(C(F)(F)F)c1` [Compound 9, 1-(2,3-Dihydrobenzo[b][1,4]dioxin-6-yl)-4-(3-(trifluoromethyl)phenyl)butane-1,4-dione]: 100 nM. Take `O=C(CCC(=O)c1ccc2c(c1)CCCO2)c1cccc(C(F)(F)F)c1` [Compound 69, 1-(Chroman-6-yl)-4-(3-(trifluoromethyl)phenyl)butane-1,4-dione]: the EC50 is greater than 10000 nM. For `COc1ccc(C(=O)CCC(=O)c2ccc3c(c2)CCCO3)cc1` [Compound 76, 1-(Chroman-6-yl)-4-(4-methoxyphenyl)butane-1,4-dione] the value was greater than 10000 nM; for `COc1ccc(C(=O)CCC(=O)c2cccc(C)c2)cc1OC` [Compound 425, 1-(3,4-Dimethoxyphenyl)-4-(m-tolyl)butane-1,4-dione], 5950 nM; for `O=C(CCC(=O)c1cccs1)c1ccc2[nH]ccc2c1` [Compound 451, 1-(1H-Indol-5-yl)-4-(thiophen-2-yl)butane-1,4-dione], 37 nM. For `O=C(CCC(=O)c1ccc2c(c1)OCCO2)c1cccc(F)c1` [Compound 11, 1-(2,3-Dihydrobenzo[b][1,4]dioxin-6-yl)-4-(3-fluorophenyl)butane-1,4-dione] the value was 13 nM; for `O=C(CCC(=O)c1ccc2[nH]ncc2c1)c1ccc(F)cc1` [Compound 497, 1-(4-Fluorophenyl)-4-(1H-indazol-5-yl)butane-1,4-dione], 48 nM.

Take `Cc1ccccc1C(=O)CCC(=O)c1ccc2ocnc2c1` [Compound 485, 1-(Benzo[d]oxazol-5-yl)-4-(o-tolyl)butane-1,4-dione]: the EC50 was greater than 10000 nM.

For `O=C(CCC(=O)c1ccc2[nH]cnc2c1)c1cccc(C(F)(F)F)c1` [Compound 263, 1-(1H-Benzo[d]imidazol-5-yl)-4-(3-(trifluoromethyl)phenyl)butane-1,4-dione], the EC50 was greater than 10000 nM. Compound `O=C(CCC(=O)c1ccccc1C(F)(F)F)c1ccc2c(c1)SCCO2` [Compound 16, 1-(2,3-Dihydrobenzo[b][1,4]oxathiin-6-yl)-4-(2-(trifluoromethyl)phenyl)butane-1,4-dione] registered an EC50 of 7 nM. Next, `Cc1ccccc1C(=O)CCC(=O)c1ccc2occc2c1` [Compound 455, 1-(Benzofuran-5-yl)-4-(o-tolyl)butane-1,4-dione]: 32 nM. For `Cc1ccccc1C(=O)CCC(=O)c1ccc2c(c1)CCCO2` [Compound 358, 1-(Chroman-6-yl)-4-(o-tolyl)butane-1,4-dione] the value was 14 nM. The compound `COc1ccccc1C(=O)CCC(=O)c1ccc2c(c1)OCCO2` [Compound 12, 1-(2,3-Dihydrobenzo[b][1,4]dioxin-6-yl)-4-(2-methoxyphenyl)butane-1,4-dione] showed an EC50 of 5 nM. Take `COc1ccccc1C(=O)CCC(=O)c1c[nH]c2ccccc12` [Compound 319, 1-(1H-Indol-3-yl)-4-(2-methoxyphenyl)butane-1,4-dione]: a half-maximal effect (EC50) was put at 279 nM. Against the preceding compound, the EC50 is about 56-fold higher. For `O=C(CCC(=O)c1ccc2c(c1)OCCO2)c1cncnc1` [Compound 345, 1-(2,3-Dihydrobenzo[b][1,4]dioxin-6-yl)-4-(pyrimidin-5-yl)butane-1,4-dione] the value was greater than 10000 nM; for `Cc1cccc(C(=O)CCC(=O)c2ccc3c(c2)OC(F)(F)O3)c1` [Compound 379, 1-(2,2-Difluorobenzo[d][1,3]dioxol-5-yl)-4-(m-tolyl)butane-1,4-dione], greater than 10000 nM; for `COc1ccc(C(=O)CCC(=O)c2cccnn2)cc1OC` [Compound 433, 1-(3,4-Dimethoxyphenyl)-4-(pyridazin-3-yl)butane-1,4-dione], greater than 10000 nM. For `O=C(CCC(=O)c1ccc2ocnc2c1)c1cccc(F)c1` [Compound 292, 1-(Benzo[d]oxazol-5-yl)-4-(3-fluorophenyl)butane-1,4-dione] the value was 595 nM; for `Cc1ccc(C(=O)CCC(=O)c2ccc3occc3c2)cc1` [Compound 457, 1-(Benzofuran-5-yl)-4-(p-tolyl)butane-1,4-dione], 2890 nM. For `O=C(CCC(=O)c1ncccn1)c1ccc2c(c1)CCCC2` [Compound 737, 1-(Pyrimidin-2-yl)-4-(5,6,7,8-tetrahydronaphthalen-2-yl)butane-1,4-dione] the value was 22 nM. For the compound `O=C(CCC(=O)c1ccco1)c1ccc2c(c1)OC(F)(F)O2` [Compound 385, 1-(2,2-Difluorobenzo[d][1,3]dioxol-5-yl)-4-(furan-2-yl)butane-1,4-dione], a half-maximal effect (EC50) was put at 165 nM. On to `O=C(CCC(=O)c1ncccc1C(F)(F)F)c1ccc2c(c1)OCCO2` [Compound 570, 1-(2,3-Dihydrobenzo[b][1,4]dioxin-6-yl)-4-(3-(trifluoromethyl)pyridin-2-yl)butane-1,4-dione], for which a half-maximal effect (EC50) was put at 26 nM. For `O=C(CCC(=O)c1c[nH]c2ccccc12)c1ccccc1` [Compound 325, 1-(1H-Indol-3-yl)-4-phenylbutane-1,4-dione] the value was 63 nM; for `COc1ccccc1C(=O)CCC(=O)c1ccc2c(c1)OCO2` [Compound 216, 1-(Benzo[d][1,3]dioxol-5-yl)-4-(2-methoxyphenyl)butane-1,4-dione], 11 nM.

On to `O=C(CCC(=O)c1n[nH]c2ccccc12)c1ccccc1` [Compound 338, 1-(1H-Indazol-3-yl)-4-phenylbutane-1,4-dione], for which the EC50 was found to be 64 nM. Compared with the last compound, the EC50 is about 5.8-fold higher. `O=C(CCC(=O)c1ccc2sccc2c1)c1ccccc1` [Compound 313, 1-(Benzo[b]thiophen-5-yl)-4-phenylbutane-1,4-dione] displayed an EC50 of 44 nM.

As to `O=C(CCC(=O)c1ncccc1F)c1ccc2c(c1)OCCO2` [Compound 569, 1-(2,3-Dihydrobenzo[b][1,4]dioxin-6-yl)-4-(3-fluoropyridin-2-yl) butane-1,4-dione], a half-maximal response (EC50) required 1.96 nM.
